Results as given in ChEMBL document CHEMBL5046216, “Disrupting Tryptophan in the Central Hydrophobic Region Selectively Mitigates Immunomodulatory Activities of the Innate Defence Regulator Peptide IDR-1002” (J Med Chem, 2021).
Activity calls are given as the source filed them. No cut-off for these calls is given here.

What was measured:
HBEC3-KT [1] = assay: Antiinflammatory activity in human HBEC3-KT cells assessed as effect on MCP1 expression measured after 24 hrs by ELISA relative to control; assay type: functional, cell-based
[2] = Retention time of the compound by HPLC analysis; assay type: physicochemical
HBEC3-KT [3] = assay: Cytotoxicity against human HBEC3-KT incubated for 24 hrs by LDH assay; assay type: functional
HBEC3-KT [4] = assay: Immunomodulatory activity in human HBEC3-KT cells assessed as suppression of INFgamma-induced IL-33 at 10 uM preincubated for 30 mins followed by INFgamma stimulation and measured after 24 hrs by Western blot analysis; assay type: functional; settings: 0.5 h
HBEC3-KT [5] = assay: Antiinflammatory activity in INFgamma-induced MCP1 expressed in human HBEC3-KT cells assessed as fold change measured after 24 hrs by ELISA relative to control; assay type: functional
HBEC3-KT [6] = assay: Antiinflammatory activity in human HBEC3-KT cells assessed as fold increase in STC1 expression at 10 uM measured after 24 hrs by ELISA relative to control; assay type: functional
HBEC3-KT [7] = assay: Antiinflammatory activity in human HBEC3-KT cells assessed as fold increase in IL-1RA expression at 10 uM measured after 24 hrs by ELISA relative to control; assay type: functional

Row | Retention_time [2] | Substance | Activity (HBEC3-KT [1]) | Activity (HBEC3-KT [3]) | Activity (HBEC3-KT [4]) | fold change (FC) (HBEC3-KT [5]) | fold change (FC) (HBEC3-KT [6]) | fold change (FC) (HBEC3-KT [7])
1 | 16.06 min | H-VRRWLIVWRIRK-OH | inactive | <=15% | 70% | 2.9 | 6 | 2.6
2 | 18.05 min | H-VQRWLIVWVIRK-OH | – | 50% | – | – | – | –
3 | 14.48 min | H-VQRWLIVIRIRK-OH | – | 50% | – | – | – | –
